Like-named read-outs stand apart in the source and are kept apart here.
Experiments:
[1] = tested on: WI- 38 (embryonic lung fibroblasts); assay: MTT assay, WI-38 fibroblasts; format: cell-based; conditions: Homo sapiens, WI-38, read-out: IC50 (µM) WI- 38
CDK9 = CDK9 (Homo sapiens, UniProt P50750); assay: biochemical
[2] = tested on: MCF7 (mammary gland breast cancer); assay: MTT antiproliferation assay, MCF7; format: cell-based; conditions: Homo sapiens, MCF7, read-out: IC50 (µM) MCF- 7
[3] = tested on: HeLa (cervical epithelioid carcinoma); assay: MTT antiproliferation assay, HeLa; format: cell-based, human
[4] = tested on: HCT116 (colorectal carcinoma); assay: MTT antiproliferation assay, HCT116; format: cell-based; conditions: Homo sapiens, HCT-116, read-out: IC50 (µM) HCT- 116
[5] = tested on: HepG2 (hepatocellular carcinoma); assay: MTT antiproliferation assay, HepG2; format: cell-based, human
CDK12 = CDK12 (Homo sapiens, UniProt Q9NYV4); assay: CDK12 inhibition assay; format: biochemical
Sequence of CDK12 (Q9NYV4 whole entry): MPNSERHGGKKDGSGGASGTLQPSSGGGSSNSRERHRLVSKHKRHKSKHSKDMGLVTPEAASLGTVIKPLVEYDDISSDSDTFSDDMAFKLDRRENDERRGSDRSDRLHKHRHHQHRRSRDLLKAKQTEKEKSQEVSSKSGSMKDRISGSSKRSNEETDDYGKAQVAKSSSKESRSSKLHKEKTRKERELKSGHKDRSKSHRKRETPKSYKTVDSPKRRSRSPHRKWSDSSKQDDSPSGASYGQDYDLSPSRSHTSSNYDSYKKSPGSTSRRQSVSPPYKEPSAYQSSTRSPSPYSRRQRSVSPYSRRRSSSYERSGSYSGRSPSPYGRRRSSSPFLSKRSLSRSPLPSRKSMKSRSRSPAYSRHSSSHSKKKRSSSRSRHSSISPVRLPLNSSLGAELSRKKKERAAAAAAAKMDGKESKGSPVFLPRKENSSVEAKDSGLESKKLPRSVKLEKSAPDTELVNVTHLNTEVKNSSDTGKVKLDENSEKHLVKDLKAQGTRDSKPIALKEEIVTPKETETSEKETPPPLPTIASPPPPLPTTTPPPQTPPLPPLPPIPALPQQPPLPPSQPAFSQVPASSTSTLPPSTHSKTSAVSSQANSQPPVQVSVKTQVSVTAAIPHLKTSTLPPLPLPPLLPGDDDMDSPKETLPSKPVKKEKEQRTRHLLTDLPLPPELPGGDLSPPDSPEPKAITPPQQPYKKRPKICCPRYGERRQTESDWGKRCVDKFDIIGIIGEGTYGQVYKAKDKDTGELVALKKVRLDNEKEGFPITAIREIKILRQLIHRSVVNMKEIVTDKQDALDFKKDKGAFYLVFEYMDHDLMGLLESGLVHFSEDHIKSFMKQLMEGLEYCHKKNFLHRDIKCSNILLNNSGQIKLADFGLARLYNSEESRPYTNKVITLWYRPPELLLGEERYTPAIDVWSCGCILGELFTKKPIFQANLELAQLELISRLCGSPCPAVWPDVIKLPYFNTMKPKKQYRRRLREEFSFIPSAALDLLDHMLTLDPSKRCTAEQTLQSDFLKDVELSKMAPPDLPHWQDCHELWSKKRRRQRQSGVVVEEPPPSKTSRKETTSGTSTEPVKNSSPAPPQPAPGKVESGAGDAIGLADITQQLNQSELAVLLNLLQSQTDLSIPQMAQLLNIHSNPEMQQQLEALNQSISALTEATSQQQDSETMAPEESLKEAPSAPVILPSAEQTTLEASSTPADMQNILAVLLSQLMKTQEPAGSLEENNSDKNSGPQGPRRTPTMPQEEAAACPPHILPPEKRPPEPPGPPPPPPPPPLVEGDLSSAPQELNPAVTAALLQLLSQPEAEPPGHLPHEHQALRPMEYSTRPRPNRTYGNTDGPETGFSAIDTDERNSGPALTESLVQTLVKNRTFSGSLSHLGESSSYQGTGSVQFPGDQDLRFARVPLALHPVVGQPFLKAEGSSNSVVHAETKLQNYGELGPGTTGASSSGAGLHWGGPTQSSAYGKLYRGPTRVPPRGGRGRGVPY
Sequence of CDK12 (O75909 whole entry partner): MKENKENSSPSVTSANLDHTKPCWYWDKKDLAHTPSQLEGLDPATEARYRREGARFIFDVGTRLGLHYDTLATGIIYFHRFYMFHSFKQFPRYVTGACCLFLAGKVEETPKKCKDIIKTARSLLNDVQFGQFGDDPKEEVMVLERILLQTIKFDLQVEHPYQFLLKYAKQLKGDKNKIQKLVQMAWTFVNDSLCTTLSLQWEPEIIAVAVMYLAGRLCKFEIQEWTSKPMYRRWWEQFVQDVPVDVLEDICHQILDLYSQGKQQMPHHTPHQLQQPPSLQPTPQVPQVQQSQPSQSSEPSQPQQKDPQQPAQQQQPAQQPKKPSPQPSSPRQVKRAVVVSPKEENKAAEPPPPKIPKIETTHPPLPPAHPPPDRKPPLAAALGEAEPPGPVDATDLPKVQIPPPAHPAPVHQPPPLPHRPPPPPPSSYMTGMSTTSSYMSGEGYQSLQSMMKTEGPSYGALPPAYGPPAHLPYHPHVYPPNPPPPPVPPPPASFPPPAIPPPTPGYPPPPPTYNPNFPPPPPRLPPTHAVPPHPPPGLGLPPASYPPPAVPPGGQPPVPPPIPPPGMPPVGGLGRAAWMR

[6] = Homo sapiens, HeLa, read-out: IC50 (µM) Hela, MTT assay, HeLa cells
[7] = Homo sapiens, HepG2, read-out: IC50 (µM) HePG- 2, MTT assay, HepG2 cells
[8] = read-out: IC50 (µM) Hela, MTT assay, HeLa cells

Sequence of CDK9 (P50750 whole entry): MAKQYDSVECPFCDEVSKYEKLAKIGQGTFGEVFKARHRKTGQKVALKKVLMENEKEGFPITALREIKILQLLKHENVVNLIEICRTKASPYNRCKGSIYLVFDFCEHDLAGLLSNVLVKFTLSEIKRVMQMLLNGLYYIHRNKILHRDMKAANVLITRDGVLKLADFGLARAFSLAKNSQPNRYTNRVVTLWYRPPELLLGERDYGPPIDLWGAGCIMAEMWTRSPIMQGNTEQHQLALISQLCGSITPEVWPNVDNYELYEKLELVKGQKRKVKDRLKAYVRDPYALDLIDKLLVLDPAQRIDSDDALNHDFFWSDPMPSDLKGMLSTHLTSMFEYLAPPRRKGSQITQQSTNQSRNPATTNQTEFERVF
Sequence of CDK9 (O60563 whole entry partner): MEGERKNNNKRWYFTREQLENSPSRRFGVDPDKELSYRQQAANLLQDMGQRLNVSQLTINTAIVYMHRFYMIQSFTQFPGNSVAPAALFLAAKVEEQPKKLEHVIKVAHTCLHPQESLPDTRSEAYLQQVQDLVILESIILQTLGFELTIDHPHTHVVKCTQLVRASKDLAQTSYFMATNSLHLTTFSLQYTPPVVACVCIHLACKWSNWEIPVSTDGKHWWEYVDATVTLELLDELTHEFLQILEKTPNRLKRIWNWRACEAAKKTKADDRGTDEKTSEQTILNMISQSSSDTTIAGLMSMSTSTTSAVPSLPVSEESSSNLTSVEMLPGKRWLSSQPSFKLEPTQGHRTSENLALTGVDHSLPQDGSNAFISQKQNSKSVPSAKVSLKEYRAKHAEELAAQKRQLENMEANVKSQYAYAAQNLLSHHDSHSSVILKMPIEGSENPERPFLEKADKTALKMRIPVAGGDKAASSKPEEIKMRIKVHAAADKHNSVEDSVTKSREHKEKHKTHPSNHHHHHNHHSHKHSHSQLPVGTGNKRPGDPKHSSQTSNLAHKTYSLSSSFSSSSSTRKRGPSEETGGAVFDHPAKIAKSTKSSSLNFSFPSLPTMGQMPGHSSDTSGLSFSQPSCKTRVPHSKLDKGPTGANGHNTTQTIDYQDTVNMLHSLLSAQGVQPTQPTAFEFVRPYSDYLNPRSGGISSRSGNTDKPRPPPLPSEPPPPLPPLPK

SMILES	IC50 (CDK9) [µM]	IC50 [2] [µM]	IC50 [3, 6] [µM]	IC50 [4] [µM]	IC50 [5, 7] [µM]	IC50 (CDK12) [µM]	IC50 [3, 8] [µM]	IC50 ([5]; read-out: IC50 (µM) HePG- 2, MTT assay, HepG2 cells) [µM]	IC50 [1] [µM]
NS(=O)(=O)c1cccc(Nc2ncc(C(F)(F)F)c(-n3cnc4ccccc43)n2)c1 [Compound 4 d, 3-((4-(1H-benzo[d]imidazol-1-yl)− 5-(trifluoromethyl)pyrimidin-2-yl)amino)benzenesulfonamide]	0.782 ± 0.034	> 50	> 50	> 50	> 50	1.33 ± 0.052			> 50
Cc1nc2ccccc2n1-c1nc(Nc2cccc(S(N)(=O)=O)c2)ncc1C(F)(F)F [Compound 4 h, 3-((4-(2-methyl-1H-benzo[d]imidazol-1-yl)− 5-(trifluoromethyl)pyrimidin-2-yl)amino)benzenesulfonamide]	0.05 ± 0.002	> 50	> 50	> 50	> 50	0.153 ± 0.006			> 50
NS(=O)(=O)c1cccc(Nc2ncc(C(F)(F)F)c(-n3c(C(F)(F)F)nc4ccccc43)n2)c1 [Compound 4 l, 3-((5-(trifluoromethyl)− 4-(2-(trifluoromethyl)− 1H-benzo[d]imidazol-1-yl)pyrimidin-2-yl)amino)benzenesulfonamide]	1.67 ± 0.072	> 50	> 50	> 50	> 50	0.899 ± 0.035			18.3 ± 1.3
Cc1cnc(Nc2cccc(S(N)(=O)=O)c2)nc1-n1c(C2CC2)nc2ccccc21 [Compound 4 s, 3-((4-(2-cyclopropyl-1H-benzo[d]imidazol-1-yl)− 5-methylpyrimidin-2-yl)amino)benzenesulfonamide]	0.408 ± 0.018	45.7 ± 2.4	47.2 ± 2.5	> 50	38.1 ± 2.3	0.189 ± 0.007			28 ± 2
NS(=O)(=O)c1cccc(Nc2ncc(C(F)(F)F)c(-n3c(C4CC4)nc4ccccc43)n2)c1 [Compound 4 t, 3-((4-(2-cyclopropyl-1H-benzo[d]imidazol-1-yl)− 5-(trifluoromethyl)pyrimidin-2-yl)amino)benzenesulfonamide]	0.121 ± 0.005	27.8 ± 1.8	30.3 ± 1.9	38.8 ± 2.3	29.3 ± 1.9	0.533 ± 0.021			> 50
NS(=O)(=O)c1cccc(Nc2nccc(-n3cnc4ccccc43)n2)c1 [Compound 4a, 3-((4-(1H-benzo[d]imidazol-1-yl)pyrimidin-2-yl)amino)benzenesulfonamide]	0.396 ± 0.017	> 50	> 50	> 50	> 50	0.295 ± 0.011			25.4 ± 1.8
Cc1cnc(Nc2cccc(S(N)(=O)=O)c2)nc1-n1cnc2ccccc21 [Compound 4c, 3-((4-(1H-benzo[d]imidazol-1-yl)− 5-methylpyrimidin-2-yl)amino)benzenesulfonamide]	0.041 ± 0.002	> 50	49.8 ± 2.7	> 50	44.4 ± 2.5	0.14 ± 0.005			> 50
Cc1nc2ccccc2n1-c1ccnc(Nc2cccc(S(N)(=O)=O)c2)n1 [Compound 4e, 3-((4-(2-methyl-1H-benzo[d]imidazol-1-yl)pyrimidin-2-yl)amino)benzenesulfonamide]	0.409 ± 0.018	> 50	> 50	> 50	> 50	0.425 ± 0.017			39 ± 2.3
NS(=O)(=O)c1cccc(Nc2nccc(-n3c(C(F)(F)F)nc4ccccc43)n2)c1 [Compound 4i, 3-((4-(2-(trifluoromethyl)− 1H-benzo[d]imidazol-1-yl)pyrimidin-2-yl)amino)benzenesulfonamide]	1.09 ± 0.047	> 50	> 50	> 50	48.3 ± 2.7	0.365 ± 0.014			> 50
Cc1cnc(Nc2cccc(S(N)(=O)=O)c2)nc1-n1c(C(F)(F)F)nc2ccccc21 [Compound 4k, 3-((5-methyl-4-(2-(trifluoromethyl)− 1H-benzo[d]imidazol-1-yl)pyrimidin-2-yl)amino)benzenesulfonamide]	5.47 ± 0.236	39.8 ± 2.2	42.8 ± 2.3	48.7 ± 2.7	34.1 ± 2.1	1.21 ± 0.047			> 50
NS(=O)(=O)c1cccc(Nc2nccc(-n3c(C4CC4)nc4ccccc43)n2)c1 [Compound 4q, 3-((4-(2-cyclopropyl-1H-benzo[d]imidazol-1-yl)pyrimidin-2-yl)amino)benzenesulfonamide]	0.057 ± 0.002	8.19 ± 0.5	9.71 ± 0.7	13.7 ± 1	5.88 ± 0.4	0.074 ± 0.003			31.4 ± 2.1
COc1cccc2c1C(=O)c1c(O)c3c(c(O)c1C2=O)C[C@@](O)(C(=O)CO)C[C@@H]3O[C@H]1C[C@H](N)[C@H](O)[C@H](C)O1 [Doxorubicin, reference compound]					4.5 ± 0.2				

Continued, in another order:

IC50 (CDK9) [µM]	IC50 [2] [µM]	IC50 [3, 6] [µM]	IC50 [4] [µM]	IC50 [5, 7] [µM]	IC50 (CDK12) [µM]	IC50 [3, 8] [µM]	IC50 ([5]; read-out: IC50 (µM) HePG- 2, MTT assay, HepG2 cells) [µM]	SMILES	IC50 [1] [µM]
0.114 ± 0.005	5.08 ± 0.3	12.6	9.34 ± 0.8	7.59 ± 0.6	0.071 ± 0.003	12.7 ± 0.9		Cc1cnc(Nc2cccc(S(N)(=O)=O)c2)nc1-n1c(C)nc2ccccc21 [Compound 4 g, 3-((5-methyl-4-(2-methyl-1H-benzo[d]imidazol-1-yl)pyrimidin-2-yl)amino)benzenesulfonamide]	> 50
0.04 ± 0.002	2.18 ± 0.1	6.39 ± 0.4	7.19 ± 0.5	3.56 ± 0.2	0.06 ± 0.002			CC(C)c1nc2ccccc2n1-c1ccnc(Nc2cccc(S(N)(=O)=O)c2)n1 [Compound 4 m, 3-((4-(2-isopropyl-1H-benzo[d]imidazol-1-yl)pyrimidin-2-yl)amino)benzenesulfonamide]	> 50
1.15 ± 0.05	14.2 ± 1.2	17 ± 1.3	24.7 ± 1.7	22.3 ± 1.6	0.566 ± 0.022			NS(=O)(=O)c1cccc(Nc2ncc(F)c(-n3cnc4ccccc43)n2)c1 [Compound 4b, 3-((4-(1H-benzo[d]imidazol-1-yl)− 5-fluoropyrimidin-2-yl)amino)benzenesulfonamide]	46.7 ± 2.6
0.762 ± 0.033	21.7 ± 1.7	23.6 ± 1.7	33.5 ± 2	15.4 ± 1.2	1.14 ± 0.044			Cc1nc2ccccc2n1-c1nc(Nc2cccc(S(N)(=O)=O)c2)ncc1F [Compound 4f, 3-((5-fluoro-4-(2-methyl-1H-benzo[d]imidazol-1-yl)pyrimidin-2-yl)amino)benzenesulfonamide]	41.2 ± 2.5
0.055 ± 0.002	11.7 ± 0.9	19.4	16.8 ± 1.2	8.54 ± 0.7	0.104 ± 0.004	19.2 ± 1.5		NS(=O)(=O)c1cccc(Nc2ncc(F)c(-n3c(C(F)(F)F)nc4ccccc43)n2)c1 [Compound 4j, 3-((5-fluoro-4-(2-(trifluoromethyl)− 1H-benzo[d]imidazol-1-yl)pyrimidin-2-yl)amino)benzenesulfonamide]	> 50
0.392 ± 0.017	32.4 ± 2	36.4 ± 2.1	43.3 ± 2.5	19.8	0.179 ± 0.007		19.9 ± 1.4	CC(C)c1nc2ccccc2n1-c1nc(Nc2cccc(S(N)(=O)=O)c2)ncc1F [Compound 4n, 3-((5-fluoro-4-(2-isopropyl-1H-benzo[d]imidazol-1-yl)pyrimidin-2-yl)amino)benzenesulfonamide]	76.1 ± 3.9
1.05 ± 0.045	> 50	> 50	> 50	> 50	1.88 ± 0.073			Cc1cnc(Nc2cccc(S(N)(=O)=O)c2)nc1-n1c(C(C)C)nc2ccccc21 [Compound 4o, 3-((4-(2-isopropyl-1H-benzo[d]imidazol-1-yl)− 5-methylpyrimidin-2-yl)amino)benzenesulfonamide]	> 50
0.153 ± 0.007	> 50	> 50	> 50	> 50	0.664 ± 0.026			CC(C)c1nc2ccccc2n1-c1nc(Nc2cccc(S(N)(=O)=O)c2)ncc1C(F)(F)F [Compound 4p, 3-((4-(2-isopropyl-1H-benzo[d]imidazol-1-yl)− 5-(trifluoromethyl)pyrimidin-2-yl)amino)benzenesulfonamide]	45.3 ± 2.7
0.242 ± 0.01	16.2 ± 1.4	26.5 ± 1.8	29.8 ± 1.9	11.4 ± 0.9	0.104 ± 0.001			NS(=O)(=O)c1cccc(Nc2ncc(F)c(-n3c(C4CC4)nc4ccccc43)n2)c1 [Compound 4r, 3-((4-(2-cyclopropyl-1H-benzo[d]imidazol-1-yl)− 5-fluoropyrimidin-2-yl)amino)benzenesulfonamide]	> 50

Source: article PMC12102023 (Saudi Pharmaceutical Journal : SPJ, 2025)
